Where two headings read alike, the source gives them in different places.
How the values were obtained:
Kunming mice [1] = assay: Analgesic activity by acetic acid-induced writhing method; format: in vivo; settings: for inhibition in vivo at 10 mg/kg / inhibition in vivo at 3.5 mg/kg: Mus musculus, sc, read-out: Analgesia rate ± SEM (%); for analgesic activity (in words, Table 1): comment on Table 1
Method: The experimental animals were Kunming mice (male:female=1:1), weighed 22±2 g, which were provided by Chengdu dossy experimental animals Co., ltd., China. The mice were kept in the animal room of the School of Life Science and Engineering, Southwest Jiaotong University, where the animal room was set at a temperature of 23±2° C., a humidity of 55±5% and a photoperiod of 16:8 h (L:D). Before the experiment, the mice were freely fed for 2-3 days with water and feed to adapt to the new environment. Then, the mice were treated by water fasting for 12 h. 10 animals were allocated to each group to ensure that there are at least 6 sets of valid data in each group. The animal experiments were carried out in strict accordance with the national regulations on the management of experimental animals.
The compounds prepared in the examples provided herein and the positive control lappaconitine were all dissolved with 0.1 mol/L HCl according to the amount of the substance ratio of 1:1, and then diluted with physiological saline to a concentration to be determined. The samples to be tested were the compounds prepared the examples provided herein; the positive control was lappaconitine; and the blank control was physiological saline containing 0.1 mol/L HCl.
The animals in the control groups were subjected to the same treatment as those in the experimental group except that the samples to be test were replaced with physiological saline.
(§1) 10 mice were randomly selected, male:female=1:1, were placed in independent cages. Each mouse was injected subcutaneously with the sample solution mentioned above at a dose of 0.1 mL/10 g body weight. After 15 min, a 0.7% acetic acid solution was intraperitoneally injected. The number of writhing reactions in each mouse within 15 minutes was recorded. The group that the mice were injected with physiological saline subcutaneously was the blank group; the group that the mice were injected with the sample to be tested was the experimental group; and the group that the mice were injected with lappaconitine was the positive group. The analgesic activity was represented by a percentage of the reduced number of writhing compared to the blank group (writhing inhibition rate), which were specifically as follows: writhing inhibition rate (analgesic activity)=(average number of writhing times in the blank group-average number of writhing times in the experimental group)/average number of writhing times in the blank group×100%.

Kunming mice [2] = assay: Median effective dose (ED50) determination, acetic acid-induced writhing; format: in vivo; settings: for ED50: subcutaneous, writhing inhibition, Probit regression; for analgesic activity / ED50 compared with lappaconitine (in words): comment on Table 2
Method: as §1
The sample to be tested was dissolved with 0.1 mol/L HCl according to the amount of the substance ratio of 1:1, and diluted with physiological saline according to the proportional series to obtain at least 5 groups with different dose concentrations. The writhing inhibition rate of each dose group was tested according to the acetic acid-induced writhing method mentioned above. The obtained does-writhing inhibition data was entered into the statistical product and service solutions (SPSS) software (version 17.2), and the ED50 of the sample to be tested was calculated through the Probit regression method.

[3] = Median lethal dose (LD50) determination; format: in vivo, Kunming mice; settings: both sexes, Kunming, mouse, in vivo, sc; subcutaneous, survival within 24 h, Probit regression
Method: (§2) The sample to be tested was dissolved with 0.1 mol/L HCl according to the amount of the substance ratio of 1:1, and diluted with physiological saline according to the required concentration. 10 mice in each group were randomly selected, half of which are male and half of which were female, and were placed in independent cages. Each mouse was injected subcutaneously with different sample solutions to be tested according to a dose of 0.1 mL/10 g body weight. In the preliminary toxicity experiment, the measured concentration was 100 mg/kg, and then based on the survival rate of the experimental animals in the preliminary experiment, the sample to be tested was set to at least 5 groups with different concentration dose according to the proportional series. The survival rate of mice within 24 h was recorded. The obtained dose-survival rate data was input into the SPSS software (version 17.2), and the LD50 of the sample was calculated according to the Probit regression method.

Kunming mice [4] = assay: Median lethal dose (LD50) determination; format: in vivo
Method: as §2

[5] = Mus musculus, sc, read-out: ED50
[6] = Dosing concentration 3.5 mg/kg, subcutaneous, 15 min before i.p. 0.7% acetic acid, writhing inhibition vs blank group
[7] = Dosing concentration 10 mg/kg, subcutaneous, 15 min before i.p. 0.7% acetic acid, writhing inhibition vs blank group

Row | Structure (SMILES) | inhibition in vivo at 10 mg/kg (Kunming mice [1]) [%] | analgesic activity (in words, Table 1) (Kunming mice [1]) | ED50 (Kunming mice [2]; [5]) [mg/kg] | analgesic activity / ED50 compared with lappaconitine (in words) (Kunming mice [2]) | LD50 [3] [mg/kg] | inhibition in vivo at 10 mg/kg (Kunming mice [1]; [7]) [%] | other results
1 | CCN1C[C@]2(OC(=O)c3ccccc3NC(=O)c3ccc(N(C)C)cc3)CC[C@H](OC)C34C2CC([C@@H]13)[C@@]1(O)C[C@H](OC)[C@H]2CC4[C@]1(O)[C@H]2OC (stereo partly shown) [Compound 5] | 62.1 ± 5.02 | significant activity | 6.1 | same order of magnitude as that of lappaconitine | 300 |  | 
2 | CCN1C[C@]2(OC(=O)c3ccccc3NC(=O)c3ccc(OC)cc3)CC[C@H](OC)C34C2CC([C@@H]13)[C@@]1(O)C[C@H](OC)[C@H]2CC4[C@]1(O)[C@H]2OC (stereo partly shown) [Compound 32] | 62.8 ± 5.77 | significant activity | 4.4 | same order of magnitude as that of lappaconitine | 296 |  | 
3 | CCN1C[C@]2(OC(=O)c3ccccc3NS(=O)(=O)c3ccccn3)CC[C@H](OC)C34C2CC([C@@H]13)[C@@]1(O)C[C@H](OC)[C@H]2CC4[C@]1(O)[C@H]2OC (stereo partly shown) [Compound 3] | 71.2 ± 2.72 | significant activity | 4.7 | same order of magnitude as that of lappaconitine | > 400 |  | 
4 | CCN1C[C@]2(OC(=O)c3ccccc3NC(=O)OC)CC[C@H](OC)C34C2CC([C@@H]13)[C@@]1(O)C[C@H](OC)[C@H]2CC4[C@]1(O)[C@H]2OC (stereo partly shown) [Compound 4] | 71.1 ± 5.97 | significant activity | 1.2 | doubled compared with lappaconitine | 10 |  | toxicity compared with lappaconitine (in words) (Kunming mice [4]; comment on Table 2): did not increase significantly
5 | CCN1C[C@]2(OC(=O)c3ccccc3NC(C)=O)CC[C@H](OC)[C@@]34[C@@H]2C[C@@H]([C@@H]13)[C@@]1(O)C[C@H](OC)[C@H]2C[C@@H]4[C@]1(O)[C@H]2OC [Lappaconitine] |  |  |  |  |  |  | Analgesia rate ± SEM (%) (Kunming mice [1]; [6]): 56.57 ± 6.57 %; experimental animal death from poisoning (Kunming mice [1]; dosing concentration of 10 mg/kg): more than half of the experimental animal death from poisoning; ED50 (Kunming mice [2]): 3.5 mg/kg; LD50 (Kunming mice [4]; subcutaneous, survival within 24 h, Probit regression): 11.7 mg/kg
6 | CCN(CC)c1ccc(C(=O)Nc2ccccc2C(=O)O[C@@]23CC[C@H](OC)C45C2CC([C@H]4N(CC)C3)[C@@]2(O)C[C@H](OC)[C@H]3CC5[C@]2(O)[C@H]3OC)cc1 (stereo partly shown) [Compound 30] | 63.9 ± 5.09 | significant activity | 7.5 | same order of magnitude as that of lappaconitine | 276 |  | 
7 | CCN1C[C@]2(OC(=O)c3ccccc3NS(=O)(=O)c3ccccc3)CC[C@H](OC)C34C2CC([C@@H]13)[C@@]1(O)C[C@H](OC)[C@H]2CC4[C@]1(O)[C@H]2OC (stereo partly shown) [Compound 1] | 84.3 ± 3.05 | significant activity | 6.1 | same order of magnitude as that of lappaconitine | > 600 |  | 
8 | CCN1C[C@]2(OC(=O)c3ccccc3NC(=O)C3CCCC3)CC[C@H](OC)C34C2CC([C@@H]13)[C@@]1(O)C[C@H](OC)[C@H]2CC4[C@]1(O)[C@H]2OC (stereo partly shown) [Compound 33] |  |  |  |  |  | 56.9 ± 3.82 | 
9 | CCN1C[C@]2(OC(=O)c3ccccc3NS(=O)(=O)c3ccc(C)cc3)CC[C@H](OC)[C@@]34C2CC([C@@H]13)[C@@]1(O)C[C@H](OC)[C@H]2CC4[C@]1(O)[C@H]2OC (stereo partly shown) [Compound 15] |  |  |  |  |  |  | inhibition in vivo at 3.5 mg/kg (Kunming mice [1]; [6]): 27.7 ± 12.9%
10 | CCN1C[C@]2(OC(=O)c3ccccc3NC(=O)c3cnc(Cl)cn3)CC[C@H](OC)C3C2C[C@@H]([C@@H]1C)[C@@]1(O)CC(OC)[C@H]2CC3[C@]1(O)[C@H]2OC (stereo partly shown) [Compound 41] |  |  |  |  |  | 31.5 ± 8.19 | 
11 | C=CCOC(=O)Nc1ccccc1C(=O)O[C@@]12CC[C@H](OC)C34C1CC([C@H]3N(CC)C2)[C@@]1(O)C[C@H](OC)[C@H]2CC4[C@]1(O)[C@H]2OC (stereo partly shown) [Compound 24] |  |  |  |  |  | 13.3 ± 9 | 
12 | CCOc1ccc(C(=O)Nc2ccccc2C(=O)O[C@@]23CC[C@H](OC)C45C2CC([C@H]4N(CC)C3)[C@@]2(O)C[C@H](OC)[C@H]3CC5[C@]2(O)[C@H]3OC)cc1 (stereo partly shown) [Compound 31] | 62.8 ± 5.41 | significant activity | 6.6 | same order of magnitude as that of lappaconitine | 315 |  | 
13 | CCN1C[C@]2(OC(=O)c3ccccc3NS(=O)(=O)c3cccc(OC)c3)CC[C@H](OC)[C@@]34C2CC([C@@H]13)[C@@]1(O)C[C@H](OC)[C@H]2CC4[C@]1(O)[C@H]2OC (stereo partly shown) [Compound 13] |  |  |  |  |  |  | inhibition in vivo at 3.5 mg/kg (Kunming mice [1]; [6]): 37.1 ± 15.7%
14 | CCN1C[C@]2(OC(=O)c3ccccc3NS(=O)(=O)c3ccccc3OC)CC[C@H](OC)C34C2CC([C@@H]13)[C@@]1(O)C[C@H](OC)[C@H]2CC4[C@]1(O)[C@H]2OC (stereo partly shown) [Compound 2] | 71.2 ± 3.8 | significant activity | 5.5 | same order of magnitude as that of lappaconitine | 300 |  | 
15 | CCN1C[C@]2(OC(=O)c3ccccc3NC(=O)C3CCOC3)CC[C@H](OC)C3C2C[C@@H]([C@@H]1C)[C@@]1(O)CC(OC)[C@H]2CC3[C@]1(O)[C@H]2OC (stereo partly shown) [Compound 38] |  |  |  |  |  | 34 ± 8.92 | 
16 | CCN1C[C@]2(OC(=O)c3ccccc3NC(=O)C3CCCCC3)CC[C@H](OC)C3C2C[C@@H]([C@@H]1C)[C@@]1(O)CC(OC)[C@H]2CC3[C@]1(O)[C@H]2OC (stereo partly shown) [Compound 37] |  |  |  |  |  | 34.5 ± 4.68 | 
17 | CCN1C[C@]2(OC(=O)c3ccccc3NC(=O)c3ccc(C(=O)OC)cc3)CC[C@H](OC)C3C2C[C@@H]([C@@H]1C)[C@@]1(O)CC(OC)[C@H]2CC3[C@]1(O)[C@H]2OC (stereo partly shown) [Compound 36] |  |  |  |  |  | 36.4 ± 9.54 | 
18 | CCN1C[C@]2(OC(=O)c3ccccc3NC(=O)c3ccc(OC(C)C)cc3)CC[C@H](OC)[C@]34C1[C@H](CC23)[C@@]1(O)C[C@H](OC)[C@H]2CC4[C@]1(O)[C@H]2OC (stereo partly shown) [Compound 59] | 61.1 ± 5.52 | significant activity | 8.1 | same order of magnitude as that of lappaconitine | 196 |  | 
